Experimental data: article PMC10794626, “Investigations of potential non-amino acid SNAT2 inhibitors” (Frontiers in Pharmacology, 2024)
≈ marks a conversion by molar mass, not a printed value. Counter-ions that a name gives are not always drawn. Like-named read-outs stand apart in the source and are kept apart here.

What was measured:
SNAT2 = target: T1, SNAT2 (Homo sapiens, UniProt Q96QD8); test: 3H-Gly uptake in hyperosmotically treated PC-3 cells; type: cell-based; conditions: for Inhibition of 3H-Gly uptake (overall finding, in words): concentration not given, 54F at the highest soluble concentration
T1 construct: endogenous in cells; host or cells: PC-3 cells (ECACC 90,112,714), 24 h in hyperosmotic medium
T1 sequence (Q96QD8 1-506): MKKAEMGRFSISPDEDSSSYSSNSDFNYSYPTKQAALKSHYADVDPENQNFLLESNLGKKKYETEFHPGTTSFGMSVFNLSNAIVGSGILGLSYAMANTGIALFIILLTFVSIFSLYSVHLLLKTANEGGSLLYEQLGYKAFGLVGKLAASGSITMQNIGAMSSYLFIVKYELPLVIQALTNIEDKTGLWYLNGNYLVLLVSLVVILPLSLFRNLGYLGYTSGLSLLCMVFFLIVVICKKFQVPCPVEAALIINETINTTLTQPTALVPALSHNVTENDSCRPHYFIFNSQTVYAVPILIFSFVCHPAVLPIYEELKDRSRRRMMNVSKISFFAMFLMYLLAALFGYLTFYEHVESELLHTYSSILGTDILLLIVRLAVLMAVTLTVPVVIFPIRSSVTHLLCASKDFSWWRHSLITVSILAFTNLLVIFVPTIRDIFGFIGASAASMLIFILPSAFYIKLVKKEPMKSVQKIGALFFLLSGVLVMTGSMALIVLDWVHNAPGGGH
Method: PC-3 cells (ECACC 90,112,714) were obtained from the European Collection of Authenticated Cell Cultures (ECACC; UK Health Security Agency, Salisbury, United Kingdom) and were received in passage 31. […] The cells were kept incubated at 37°C in an atmosphere of 5% CO2 and 94%–97% relative humidity and the culture medium was changed every 2–3 days. For hyperosmotic stimulation, PC-3 cells were incubated in hyperosmotic media for 24 h before the uptake experiment. The hyperosmotic media was made by supplementing normal isoosmotic culture medium with 200 mM raffinose to reach an osmolality of approximately 500 mOsm ⋅ kg^−1. For uptake studies, the PC-3 cells were seeded in 24-well plates (area of 1.9 cm^2) at a density of 1.5 ⋅ 10^5 cells ⋅ cm^−2 2 days before the experiment. Experiments were performed using PC-3 cells in passages 2–15 after thawing.
Hyperosmotically treated PC-3 cells were used to study the uptake of radiolabeled ^3H-Gly. Solutions were prepared using Hanks Balanced Salt Solution (HBSS), which consisted of the following (mM): CaCl2, 1.26; MgCl2, 0.49; MgSO4, 0.41; KCl, 5.33; KH2PO4, 0.44; NaCl, 138; Na2HPO4, 0.34; D-glucose, 5.56; NaHCO3, 4.17. HBSS was supplemented with 10 mM HEPES and adjusted to pH 7.4 ± 0.01 (HBSS*) with […]. Donor solutions contained 0.5 μCi/mL of ^3H-glycine (11.1 nM). MMTC was also investigated at a substrate concentration of 100 µM Gly, which was achieved by the addition of unlabeled Gly to donor solutions containing 0.5 μCi/mL of ^3H-Gly (11.1 nM). […] Before starting the uptake experiment the media was aspirated, and the cells were preincubated in HBSS* for 15 min at 37°C and 220 rpm. To initiate the uptake study, the buffer was removed and 300 µL of prewarmed (37°C) donor solution was added to the cells and incubated at 37°C. During incubation, the cells were circularly rotated at 220 rpm using a Talboys incubating microplate shaker (Troemner, Thorofare, NJ, United States). After 5 min, the uptake experiment was terminated by removing the buffer solutions by vacuum suction, and the cells were washed thrice with 500 µL ice-cold HBSS. […] The cells were then detached by applying 200 µL of 0.1% Triton-X 100 for at least 25 min and cells were then transferred to scintillation vials along with 2 mL of Ultima Gold scintillation fluid. The vials were vortexed before being analyzed by a liquid scintillation counter, which was a TriCarb 4910 TR from PerkinElmer (Waltham, MA, United States).
^3H-Gly uptake values were normalized to the control uptake of each experiment, but without subtracting any background uptake.
Statistical differences were tested in GraphPad Prism 9.4.1 using one-way ANOVA followed by Dunnett’s multiple comparison test. The significance level used was p < 0.05 (*). Data are represented as means ± SEM from independent cell passages (n) unless otherwise stated.

[1] = Equilibrium solubility in HBSS* buffer (HPLC-UV); type: physicochemical; conditions: HEPES buffered HBSS (HBSS*) buffer, pH 7.4, 37°C, mean ± SD, N = 3
Method: The mobile phases (MP) consisted of ultra-pure water containing 0.1% trifluoroacetic acid (MP A) and acetonitrile containing 0.1% trifluoroacetic acid (MP B). A reversed-phase column (Nova-Pak® C18, 4 μm, 3.9 × 150 mm, Waters, Milford, MA, United States) was applied and maintained at 22°C. The flow was constant at 0.6 mL ⋅ min^−1 with an isocratic elution of 40% MP A and 60% MP B for 53B, 55B, and 57B, an isocratic elution of 30% MP A and 70% MP B with a constant flow of 0.8 mL ⋅ min^−1 for MMTC, and an isocratic elution of 60% MP A and 40% MP B with a constant flow of 0.6 mL ⋅ min^−1 for […]. Samples of 20 μL, maintained at 25°C, were injected and all five compounds were measured at 270 nm. […] The calibration curves ranged from 5 to 30 µM for MMTC and 53B and from 7.5 to 30 µM for 54F, 55B, and 57B. Linear regression of peak height as a function of concentration was analyzed using GraphPad Prism 9.4.1.
The 5 mL vials were then left on a rotator covered in aluminum foil at 37°C. After 72 h rotation, the solutions were equally distributed into three 1.5 mL microtubes, to do triplicate measurements, and centrifuged at 10,000 g at room temperature for 10 min. The supernatant was removed and for 53B, 54F, and 57B the supernatant was diluted 1:2 with their respective mobile phases. For MMTC and 55B, the supernatant was diluted 2:1 with their respective mobile phase. The diluted samples were analyzed by HPLC-UV as described in Section 2.4.
For the quantification of MMTC, 53B, 54F, 55B, and 57B a linear regression was made of each of the calibration curves, where the known concentrations were plotted as a function of the peak height.

ASCT2 = system: ASCT2; parameters: method as in Schulte et al., 2016; Schulte et al., 2018; conditions: HEK293 cells, ref Schulte et al., 2016, 2018; cited from earlier work
[2] = Kinetic solubility of MMTC diluted from DMSO stock into HBSS*; type: physicochemical; conditions: HBSS* buffer, 37°C
Method: Quantification of compounds was performed using a Waters 2695 HPLC system (Waters Corporation, MA, United States) connected to a Waters 2487 Dual λ Absorbance Detector (Waters Corporation, MA, United States). The mobile phases (MP) consisted of ultra-pure water containing 0.1% trifluoroacetic acid (MP A) and acetonitrile containing 0.1% trifluoroacetic acid (MP B). A reversed-phase column (Nova-Pak® C18, 4 μm, 3.9 × 150 mm, Waters, Milford, MA, United States) was applied and maintained at 22°C. The flow was constant at 0.6 mL ⋅ min^−1 with an isocratic elution of 40% MP A and 60% MP B for 53B, 55B, and 57B, an isocratic elution of 30% MP A and 70% MP B with a constant flow of 0.8 mL ⋅ min^−1 for MMTC, and an isocratic elution of 60% MP A and 40% MP B with a constant flow of 0.6 mL ⋅ min^−1 for […]. Samples of 20 μL, maintained at 25°C, were injected and all five compounds were measured at 270 nm. MMTC, 53B, 54F, 55B, and 57B had retention times of 4.00, 2.47, 5.14, 2.92, and 4.00 min, respectively. […] Linear regression of peak height as a function of concentration was analyzed using GraphPad Prism 9.4.1. […]
The 5 mL vials were then left on a rotator covered in aluminum foil at 37°C. […] The diluted samples were analyzed by HPLC-UV as described in Section 2.4. […]

PC-3 cells = system: PC-3 cells; parameters: method as in Nielsen et al., 2022; conditions: ref Nielsen et al., 2022, read-out: Km of uptake; cited from earlier work
[3] = at soluble conditions / within soluble concentration range

SMILES: CC(C)c1ccc(S(=O)(=O)Nc2ccc3nc(S(C)(=O)=O)sc3c2)cc1 [54F]
- Inhibition of 3H-Gly uptake compared to control (SNAT2; 50 µM compound, 11.1 nM 3H-Gly, 5 min, 37°C, 1% DMSO): approximately 20%
- Inhibition of 3H-Gly uptake (overall finding, in words) (SNAT2): significant, but small, inhibition
- solubility thermodynamic ([1]; aqueous buffer): 56.1 ± 0.5 µM (≈ 23 µg/mL)

SMILES: Cc1cccc(COc2ccccc2CN(CC[C@H](N)C(=O)O)Cc2ccccc2OCc2cccc(C)c2)c1 [V-9302]
- IC50 (ASCT2): 7 to 10 µM

SMILES: Cc1ccc(S(=O)(=O)N(C)c2ccsc2C(=O)NCc2ccccc2C(F)(F)F)cc1 [MMTC, 3-(N-methyl (4-methylphenyl)sulfonamido)-N-(2-trifluoromethylbenzyl)thiophene-2-carboxamide]
- Inhibition of Gly uptake (SNAT2; 1 µM MMTC, substrate concentration 100 µM Gly, Supplementary Figure S1, n = 1): does not inhibit
- Inhibition of SNAT2-mediated 3H-Gly uptake (SNAT2; 1 µM compound, 11.1 nM 3H-Gly, 5 min, 37°C, 1% DMSO): no inhibition
- Inhibition of SNAT2-mediated 3H-Gly uptake (SNAT2; 5 µM compound, 11.1 nM 3H-Gly, 5 min, 37°C, 1% DMSO): no inhibition
- Inhibition of 3H-Gly uptake (overall finding, in words) (SNAT2): did not inhibit
- solubility kinetic ([2]; aqueous buffer, kinetic from dmso stock, within 15 min, remained stable for at least 45 min, read-out: MMTC concentration after dilution of DMSO stock to 10 µM in HBSS*): ~2.5 µM (≈ 1.17 µg/mL)
- solubility kinetic ([2]; pH 7.4, HBSS*, during the course of the uptake study, read-out: Kinetic solubility): 2.5 to 10 µM (≈ 1.17 to 4.69 µg/mL)
- solubility thermodynamic ([1]; aqueous buffer): < 1.8 µM

SMILES: O=C(O)[C@@H]1CCCN1 [Pro]
- Km (PC-3 cells): 780 ± 100 µM

SMILES: NCC(=O)O [Gly, glycine]
- Km (PC-3 cells): 750 ± 160 µM

SMILES: COC(=O)c1ccccc1NC(=O)Nc1c(-c2ccncc2)[nH]c2ccc(Cl)cc12 [55B]
- Inhibition of 3H-Gly uptake (SNAT2; [3]): no inhibition
- solubility thermodynamic ([1]; aqueous buffer): 13.2 ± 1.6 µM (≈ 5.56 µg/mL)
- solubility thermodynamic [1]: 13.3 µM (≈ 5.6 µg/mL)

SMILES: Cc1nc(-n2nc(C)c(Cc3ccc(Cl)cc3)c2C)sc1C(=O)N1CCN(C)CC1 [57B]
- Inhibition of 3H-Gly uptake (SNAT2; [3]): no inhibition
- solubility thermodynamic ([1]; aqueous buffer): 27.5 ± 1 µM (≈ 12.2 µg/mL)

SMILES: C[N+](C)(C)CC(=O)O [betaine]
- Inhibition of Gly uptake (in words) (SNAT2; 50 mM betaine, 20 mM Gln, Figure 1): almost completely inhibits
- Inhibition of 3H-Gly uptake (SNAT2; 50 mM, 11.1 nM 3H-Gly, 5 min): around 86%

SMILES: Cc1ccccc1Nc1c(-c2ccc(N3CCOCC3)cc2)nc2cnccn12 [53B]
- Inhibition of 3H-Gly uptake (SNAT2; [3]): no inhibition
- solubility thermodynamic ([1]; aqueous buffer): 24.9 ± 0.8 µM (≈ 9.6 µg/mL)

SMILES: N=C(N)NCCC[C@H](N)C(=O)O [L-Arg, L-arginine hydrochloride]
- Effect on 3H-Gly uptake (SNAT2; 20 mM, 11.1 nM 3H-Gly, 5 min): did not affect the uptake significantly
